Here are results for four compounds from US10571448B2, “Method and system for comprehensive evaluation of organic compound and heavy metal pollution in water based on fish electrocardio” (priority 2018, dated 2020).

The subject of one series is koi. Briefly: 48 h semi-lethal concentration of heavy metal solutions for koi. To be noted: recorded as 1 toxic unit (1 TU).
Series [1] concerns zebrafish. Nature of the series: Zebrafish electro-cardio indexes under deltamethrin exposure, with Pearson correlation to environmental stress E. Particulars: as concentration increased (0.52, 2, 2.6 μg/L), 0-48 h.
Protocol: Fish electro-cardio signals respectively before and after the fish is exposed to a solution containing a specific organic compound are gathered by the real-time and miniaturized fish electro-cardio acquisition system, and various electro-cardio indexes are respectively extracted.
The correlation between environmental stress and respective extracted electro-cardio indexes is analyzed according to Pearson Correlation Analysis to select an electro-cardio index suitable for the assessment of water quality with respect to this specific organic compound.
A linear regression model between the environmental stress and respective electro-cardio indexes is analyzed and assessed according to Akaike Information Criterion and the sum of square error to finally obtain an electro-cardio index suitable for the assessment of water quality with respect to the specific organic compound.
In the present method, the real-time electro-cardio signals were acquired from multiple fishes respectively exposed to different concentrations of the specific organic compound. Firstly, the zebrafish was exposed to an organic solvent deltamethrin solution. […]
The acquired electro-cardiographs were subjected to filtering and interference removal to become clearer; the analyzed data was processed, and then was analyzed by Matlab software and SPSS software to estimate the electro-cardio changes based on data differences. […]
The subject of series [2] is zebrafish. Nature of the series: 48 h medial lethal concentration of deltamethrin for zebrafish. Format: in vivo. To be noted: recorded as 1 toxic unit (1 TU). An excerpt:
Three zebrafishes were used in each exposed group.

With `[Mn+2]` [manganese], the “48 h semi-lethal concentration” value in the series on koi worked out at 2.75 mg/L. Still for that read-out and setting: for `[Cl][Hg][Cl]` [mercury chloride] the value was 0.13 mg/L.

`CC1(C)[C@H](C(=O)O[C@H](C#N)c2cccc(Oc3ccccc3)c2)[C@@H]1C=C(Br)Br` [deltamethrin]: in the series with zebrafish [1], the “PR interval, QRS interval, ST interval and QT interval” value is on record as “increased”; the “amplitudes of P-wave, Q-wave, R-wave, S-wave and T-wave” value is reported as “decreased”. The “48 h medial lethal concentration” value in the series on zebrafish [2] was determined as 5.2 µg/L. Take `[Cl][Cd][Cl]` [cadmium chloride]: the “48 h semi-lethal concentration” value in the series on koi is on record as 23.6 mg/L.
